Laboratory results taken from PubChem BioAssay (NCI).
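How tested: cells in 96-well plates exposed to compound for 48 hours at five concentrations. GI50: concentration for 50% inhibition of growth. TGI denotes the concentration required for complete inhibition of growth.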

Assays:
Experiment in all cases: NCI anticancer screen, dose series, 48 h
[1] = tested on: ACHN renal
[2] = tested on: HL-60(TB) leukemia
[3] = tested on: MALME-3M melanoma
[4] = tested on: U251 CNS
[5] = tested on: HCT-116 colon
[6] = tested on: SK-MEL-5 melanoma
[7] = tested on: SF-268 CNS
[8] = tested on: SN12C renal
[9] = tested on: OVCAR-8 ovarian
[10] = tested on: COLO 205 colon
[11] = tested on: UACC-62 melanoma
[12] = tested on: BT-549 breast
[13] = tested on: RPMI-8226 leukemia
[14] = tested on: A498 renal
[15] = tested on: SNB-75 CNS
[16] = tested on: UO-31 renal
[17] = tested on: SF-539 CNS
[18] = tested on: CAKI-1 renal
[19] = tested on: HCT-15 colon
[20] = tested on: SW-620 colon
[21] = tested on: SK-MEL-2 melanoma
[22] = tested on: DU-145 prostate
[23] = tested on: M14 melanoma
[24] = tested on: OVCAR-5 ovarian
[25] = tested on: NCI-H226 lung
[26] = tested on: IGROV1 ovarian
[27] = tested on: PC-3 prostate
[28] = tested on: NCI/ADR-RES ovarian

SMILES: CN(C)CCCNc1nc2ccccc2c2c(=O)c3cc(F)ccc3sc12
- GI50 [1]: 1560 nM
- TGI [1]: 2920 nM
- GI50 [2]: 2020 nM
- TGI [2]: 4.14 µM
- GI50 [3]: 1620 nM
- TGI [3]: 3.05 µM
- GI50 [4]: 1900 nM
- TGI [4]: 4.41 µM
- GI50 [5]: 1510 nM
- TGI [5]: 3.19 µM
- GI50 [6]: 1700 nM
- TGI [6]: 3.12 µM
- GI50 [7]: 1530 nM
- TGI [7]: 3.16 µM
- GI50 [8]: 1610 nM
- TGI [8]: 3.15 µM
- GI50 [9]: 2090 nM
- TGI [9]: 4.91 µM
- GI50 [10]: 2120 nM
- TGI [10]: 5.03 µM
- GI50 [11]: 1750 nM
- TGI [11]: 3.24 µM
- GI50 [12]: 10.1 µM
- TGI [12]: 22.9 µM
- GI50 [13]: 2320 nM
- TGI [13]: 5.37 µM
- GI50 [14]: 1810 nM
- TGI [14]: 3.68 µM
- GI50 [15]: 1330 nM
- TGI [15]: 2750 nM
- GI50 [16]: 1480 nM
- TGI [16]: 2830 nM
- GI50 [17]: 1610 nM
- TGI [17]: 3.01 µM
- GI50 [18]: 1580 nM
- TGI [18]: 2940 nM
- GI50 [19]: 1650 nM
- TGI [19]: 3.2 µM
- GI50 [20]: 1620 nM
- TGI [20]: 3.18 µM
- GI50 [21]: 2000 nM
- TGI [21]: 4.07 µM
- GI50 [22]: 1680 nM
- TGI [22]: 3.16 µM
- GI50 [23]: 1980 nM
- TGI [23]: 3.75 µM
- GI50 [24]: 1570 nM
- TGI [24]: 2950 nM
- GI50 [25]: 1710 nM
- TGI [25]: 3.34 µM
- GI50 [26]: 1470 nM
- TGI [26]: 2940 nM
- GI50 [27]: 1800 nM
- TGI [27]: 3.53 µM
- GI50 [28]: 1620 nM
- TGI [28]: 3.18 µM
